Entries after “also recorded” stand apart in the source; their conditions may differ.
How the values were obtained:
[1] = test system: A549 cells stably expressing sh6; assay: BrdU incorporation, A549 Rb shRNA sh6; assay type: cell-based, human; conditions: 20 μM, Rb knock down
Procedure: (§1) Proliferation assays. Bromodeoxyuridine (BrdU) labeling kits were obtained from Roche Biochemicals (Indianapolis, Ind.). Cells were plated in poly-D-lysine coated chamber slides at a density of 10,000 cells per well and rendered quiescent by serum starvation for 24 hours. Cells were then re-stimulated with serum in the presence or absence of the indicated drugs for 18 h. S-phase cells were visualized by microscopy and quantitated by counting 3 fields of 100 in quadruplicate.
To further confirm that 3a requires a functional Rb to inhibit tumor cell proliferation, A549 cells (human epithelial lung carcinoma) were stably transfected with two different shRNA constructs (sh6 and sh8) to knock down Rb expression.

Raf-1 = molecular target: T1, Raf-1 (Homo sapiens, UniProt P04049); assay: In vitro kinase assay, Raf-1; assay type: biochemical
T1 construct: purchased Upstate Signaling, Charlottesville, Va; (Raf-1); QED Bioscience, San Diego, Calif; (Rb)
T1 sequence (P04049 whole entry): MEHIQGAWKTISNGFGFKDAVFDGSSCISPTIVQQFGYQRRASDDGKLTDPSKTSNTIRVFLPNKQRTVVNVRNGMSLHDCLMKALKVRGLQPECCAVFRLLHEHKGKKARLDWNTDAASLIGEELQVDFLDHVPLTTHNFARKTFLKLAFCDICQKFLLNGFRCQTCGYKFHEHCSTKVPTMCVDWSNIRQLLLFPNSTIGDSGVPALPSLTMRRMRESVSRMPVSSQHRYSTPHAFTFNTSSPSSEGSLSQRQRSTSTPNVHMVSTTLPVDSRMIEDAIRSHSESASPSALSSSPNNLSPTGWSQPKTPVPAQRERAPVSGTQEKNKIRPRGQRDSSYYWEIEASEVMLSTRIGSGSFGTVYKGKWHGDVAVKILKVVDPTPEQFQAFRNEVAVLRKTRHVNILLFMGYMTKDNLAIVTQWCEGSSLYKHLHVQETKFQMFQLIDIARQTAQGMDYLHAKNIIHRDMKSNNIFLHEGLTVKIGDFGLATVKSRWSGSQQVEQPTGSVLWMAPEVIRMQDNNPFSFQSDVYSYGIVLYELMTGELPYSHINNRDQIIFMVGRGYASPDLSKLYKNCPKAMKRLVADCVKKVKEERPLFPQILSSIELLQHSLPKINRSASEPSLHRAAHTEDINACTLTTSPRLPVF
Procedure: In vitro kinase assay. The kinase reaction for Raf-1 was carried out with 100 nanograms (ng) of Raf-1 (Upstate Signaling, Charlottesville, Va.), 0.5 μg of full-length Rb protein (QED Bioscience, San Diego, Calif.) as the substrate, 10 μM ATP, 10 μCi of [γ-^32P] ATP in the kinase assay buffer in the presence or absence of the drugs at 30° C. for 30 minutes. Cyclin D and E kinase assays are described in (Dasgupta 2004).

[2] = molecular target: T2, binding of Rb to Raf-1 in A-549 cells (Homo sapiens, UniProt P04049+P06400); assay: IP-western, serum stimulated A-549 cells, Rb:Raf-1; assay type: cell-based
T2 construct: endogenous in cells; host or cells: A549
T2 sequence (P06400 whole entry): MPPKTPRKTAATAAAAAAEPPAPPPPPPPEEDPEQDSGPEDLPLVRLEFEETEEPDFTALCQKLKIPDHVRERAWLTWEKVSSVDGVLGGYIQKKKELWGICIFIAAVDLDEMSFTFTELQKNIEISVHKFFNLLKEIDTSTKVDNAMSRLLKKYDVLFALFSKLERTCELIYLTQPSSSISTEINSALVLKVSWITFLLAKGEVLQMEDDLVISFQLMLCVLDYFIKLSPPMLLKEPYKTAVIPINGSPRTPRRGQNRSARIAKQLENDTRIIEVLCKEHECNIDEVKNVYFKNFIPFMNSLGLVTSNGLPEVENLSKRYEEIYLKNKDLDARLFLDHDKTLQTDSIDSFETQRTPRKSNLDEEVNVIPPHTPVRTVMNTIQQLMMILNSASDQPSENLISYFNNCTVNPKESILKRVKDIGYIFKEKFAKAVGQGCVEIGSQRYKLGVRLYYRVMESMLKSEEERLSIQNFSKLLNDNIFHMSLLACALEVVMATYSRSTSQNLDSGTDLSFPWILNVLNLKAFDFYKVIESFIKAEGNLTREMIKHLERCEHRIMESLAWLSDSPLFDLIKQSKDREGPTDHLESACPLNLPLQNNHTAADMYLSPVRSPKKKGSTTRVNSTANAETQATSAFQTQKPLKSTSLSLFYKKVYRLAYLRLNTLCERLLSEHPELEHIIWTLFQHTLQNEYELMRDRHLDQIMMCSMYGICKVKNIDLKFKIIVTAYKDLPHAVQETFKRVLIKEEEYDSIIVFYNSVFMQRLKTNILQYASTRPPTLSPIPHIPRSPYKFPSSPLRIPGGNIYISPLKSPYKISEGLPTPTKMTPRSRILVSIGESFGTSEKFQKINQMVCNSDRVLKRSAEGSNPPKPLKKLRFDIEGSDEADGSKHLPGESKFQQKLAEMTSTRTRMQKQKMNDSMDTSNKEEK
T2 sequence (P04049 whole entry): as the sequence (P04049 whole entry) above
Text: Lysate preparation, pmmunoprecipitation, and pestern plotting.

Rb:Raf-1 binding = molecular target: T3, Rb:Raf-1 binding (Homo sapiens, UniProt P04049+P06400); assay: GST-Rb/GST-Raf-1 ELISA; conditions: concentration that inhibits the Rb:Raf-1 binding by 50%, triplicate; read-out: IC50 (nM), inhibition of the Rb:Raf-1 binding
T3 construct: a glutathione S-transferase (GST) Raf-1 (1-149aa) overnight at 4° C; made in house
T3 sequence (P04049 1-149 limits assumed): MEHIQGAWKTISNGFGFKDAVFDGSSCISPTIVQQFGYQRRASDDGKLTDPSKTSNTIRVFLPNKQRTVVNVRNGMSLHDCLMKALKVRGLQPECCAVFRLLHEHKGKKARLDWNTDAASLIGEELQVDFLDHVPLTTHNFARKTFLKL
T3 sequence (P06400 whole entry): as the sequence (P06400 whole entry) above
Procedure: In vitro library screening assays. Enzyme Linked ImmunoSorbent Assay (ELISA) 96-well plates were coated with 1 μg/mL of a glutathione S-transferase (GST) Raf-1 (1-149aa) overnight at 4° C. Subsequently the plates were blocked and GST Rb at 20 μg/mL was rotated at room temperature (RT) for 30 minutes in the presence or absence of the compounds at 20 micromolar (μM). GST-Rb +/− compounds were then added to the plate and incubated for 90 minutes (min) at 37° C. The amount of Rb bound to Raf-1 was detected by Rb polyclonal antibody (Santa Cruz Biotechnology, Santa Cruz, Calif.) 1:1000 incubated for 60 min at 37° C. Donkey-anti-rabbit-IgG-HRP (1:10,000) was added to the plate and incubated at 37° C. for 60 minutes. The color was developed with orthophenylenediamine (Sigma, St. Louis, Mo.) and the reaction was terminated with 3 molar (M) H2SO4. Absorbance was read at 490 nanometers (nm). To determine disruption of Rb to E2F1, Phb, or HDAC1 the above protocol was used with the exception of coating GST Rb on the ELISA plate and adding the drugs in the presence or absence of GST E2F1, Phb, or HDAC1. […] Prohibitin monoclonal antibody was used at 1:1000 to detect the amount of Rb bound to Prohibitin. For disruption of MEK-Raf-1 binding ELISAs, Raf-1 1 microgram/milliliter (μg/mL) was coated on the plate and GST-MEK (20 μg/mL) was incubated +/− the compounds for 30 minutes at room temperature. Mek1 polyclonal antibody was used at 1:1000 to detect the binding of Raf-1 to Mek1. The IC50 concentrations for the Rb:Raf-1 inhibitors were determined by plotting with Origin 7.5 software (Origin, Northampton, Mass.).
A screen was developed to identify small molecule inhibitors of the Rb:Raf-1 interaction. A diversity set, comprising 1981 compounds (National Cancer Institute, Bethesda, Md.) was examined using a glutathione S-transferase-retinoblastoma/glutathione S-transferase-Raf-1 kinase Enzyme-Linked ImmunoSorbent Assay screen (GST-Rb/GST-Raf-1 ELISA).

[3] = molecular target: T4, Rb/E2F1 interaction in tumor xenografts (Homo sapiens, UniProt P06400+Q01094); assay: IP-Western of tumor lysates, Rb/E2F1; assay type: in vivo, nude mice; conditions: both doses
T4 construct: from tissue; host or cells: A549 xenograft tumors from nude mice
T4 sequence (P06400 whole entry): as above
T4 sequence (Q01094 whole entry): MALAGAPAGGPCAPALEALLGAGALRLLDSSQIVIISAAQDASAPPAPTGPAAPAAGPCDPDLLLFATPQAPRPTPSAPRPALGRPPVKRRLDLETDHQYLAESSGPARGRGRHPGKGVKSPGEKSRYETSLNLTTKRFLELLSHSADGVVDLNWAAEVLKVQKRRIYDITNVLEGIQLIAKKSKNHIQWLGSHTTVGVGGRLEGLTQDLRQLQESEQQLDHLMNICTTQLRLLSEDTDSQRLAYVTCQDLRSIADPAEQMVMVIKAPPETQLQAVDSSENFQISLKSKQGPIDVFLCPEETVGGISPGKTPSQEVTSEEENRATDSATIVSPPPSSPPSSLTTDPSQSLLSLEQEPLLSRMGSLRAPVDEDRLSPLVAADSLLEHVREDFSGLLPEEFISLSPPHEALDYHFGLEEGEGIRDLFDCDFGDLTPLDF

H1650 tumors = assay: H1650 xenograft in nude mice; assay type: in vivo
[4] = test system: cdc6, cdc25A and TS promoters; assay: Chromatin immunoprecipitation (ChIP) assay, A549 cells; assay type: cell-based, human; conditions: 20 μM
Procedure: Chromatin immunoprecipitation (ChIP) assay. A549 cells were rendered quiescent by serum starvation and re-stimulated with serum for 2h or 16h in the presence or absence of RRD 251 at 20μM. Cells were cross-linked with 1% formaldehyde for 10 minutes at room temperature. Subsequently, the cells were harvested and lysates were prepared. Immunoprecipitations were analyzed for the presence of E2F1, Rb, Raf-1, Brg1, HP1, and HDAC1 by PCR as previously described (Dasgupta 2004). Rabbit anti-mouse secondary antibody was used as the control for all reactions. The sequences of the PCR primers used in the PCRs were as follows: Cdc6 promoter (forward primer), 5′- […]-3′ (SEQ ID NO:1); and Cdc6 promoter (reverse primer), 5′-[…]-3′ (SEQ ID NO:2). TS promoter (forward primer), and 5′-GAC GGA GGC AGG CCA AGT G-3′ SEQ ID NO:3) TS promoter (reverse primer). The cdc25A and c-fos primers are described in (Dasgupta, 2004).
Since serum is known to stimulate the binding of Raf-1 to Rb and leads to the dissociation of the co-repressor Brg-1 from E2F-responsive proliferative promoters like cdc6, cdc25 and TS promoters, it was hypothesized that 3a may interfere with this process. […] Binding of E2F1, HDAC1 and HP1 was not affected.

[5] = test system: A549 cells infected with Ad-cyclin D; assay: BrdU incorporation, A549 infected with Ad-cyclin D; assay type: cell-based, human; conditions: 20 μM of 3a for 36 h
Procedure: as §1
To this end, A549 cells were infected with Ad-E2F1 or Ad-cyclin D, in the presence of 20 μM of 3a for 36 h. Ad-GFP infected cells were used as a control.

LNCaP prostate cell line = assay: BrdU proliferation assay, LNCaP; assay type: cell-based
Procedure: as §1
Prostate cell lines LNCaP and PC3 both contain mutations in K-Ras and PTEN genes.

Cl.N=C(N)SCc1ccc(Cl)cc1Cl [Compound 3a]
S-phase entry (BrdU), A549 sh6 [1]: does not inhibit the proliferation; also recorded: no effect | Raf-1 kinase activity (Raf-1): does not inhibit; also recorded: did not affect the kinase activities | serum stimulated binding of Rb to Raf-1 [2]: inhibited | IC50 (Rb:Raf-1 binding): 77 nM | Rb/E2F1 interaction in tumor lysates [3]: without inhibiting Rb-E2F1 interaction; also recorded: not Rb/E2F1 interaction | H1650 tumor growth in words (H1650 tumors; 50 mpk i.p.): inhibited H1650 xenograft tumor growth; also recorded: inhibited the growth of these tumors significantly | tumor size, H1650 xenograft (H1650 tumors; 50 mpk/day i.p., vehicle 2185±326 mm^3): 557±76 mm3 | Raf-1 binding to E2F-responsive promoters upon serum stimulation [4]: causes the dissociation of Raf-1; also recorded: disrupted | binding of E2F1, HDAC1 and HP1 to promoters [4]: not affected | dissociation of co-repressor Brg-1 from promoters [4]: retention of Brg1; also recorded: inhibited | rescue of anti-proliferative activity by cyclin D over expression [5]: only a partial effect | inhibition of proliferation, LNCaP (LNCaP prostate cell line): 86%

Source: patent publication US9656953B2, “Inhibition of cell proliferation” (University of South Florida, priority 2005, dated 2017)
